# Assay results as given in ChEMBL document CHEMBL4507319 (2021).
# Assays:
# [1] = molecular target: Atypical kinase COQ8A, mitochondrial (Homo sapiens) (UniProt Q8NI60); conditions: Compound concentration 1000.0 nM
# [2] = molecular target: Tyrosine-protein kinase receptor UFO (Homo sapiens) (UniProt P30530); conditions: Compound concentration 1000.0 nM
# [3] = molecular target: Cyclin-dependent kinase 3 (Homo sapiens) (UniProt Q00526); conditions: Compound concentration 1000.0 nM
# [4] = molecular target: Citron Rho-interacting kinase (Homo sapiens) (UniProt O14578); conditions: Compound concentration 1000.0 nM
# [5] = molecular target: Casein kinase I isoform delta (Homo sapiens) (UniProt P48730); conditions: Compound concentration 1000.0 nM
# [6] = test system: Epidermal growth factor receptor (Homo sapiens), P00533 [G719S]; conditions: Compound concentration 1000.0 nM
# [7] = molecular target: Cyclin-G-associated kinase (Homo sapiens) (UniProt O14976); conditions: Compound concentration 1000.0 nM
# [8] = molecular target: Mitogen-activated protein kinase kinase kinase kinase 1 (Homo sapiens) (UniProt Q92918); conditions: Compound concentration 1000.0 nM
# [9] = molecular target: Mitogen-activated protein kinase kinase kinase kinase 5 (Homo sapiens) (UniProt Q9Y4K4); conditions: Compound concentration 1000.0 nM
# [10] = molecular target: Serine/threonine-protein kinase mTOR (Homo sapiens) (UniProt P42345); conditions: Compound concentration 1000.0 nM
# [11] = molecular target: Serine/threonine-protein kinase Nek7 (Homo sapiens) (UniProt Q8TDX7); conditions: Compound concentration 1000.0 nM
# [12] = molecular target: T1, Mitogen-activated protein kinase 12 (Homo sapiens) (UniProt P53778); conditions: Compound concentration 1000.0 nM
# T1 sequence (whole entry): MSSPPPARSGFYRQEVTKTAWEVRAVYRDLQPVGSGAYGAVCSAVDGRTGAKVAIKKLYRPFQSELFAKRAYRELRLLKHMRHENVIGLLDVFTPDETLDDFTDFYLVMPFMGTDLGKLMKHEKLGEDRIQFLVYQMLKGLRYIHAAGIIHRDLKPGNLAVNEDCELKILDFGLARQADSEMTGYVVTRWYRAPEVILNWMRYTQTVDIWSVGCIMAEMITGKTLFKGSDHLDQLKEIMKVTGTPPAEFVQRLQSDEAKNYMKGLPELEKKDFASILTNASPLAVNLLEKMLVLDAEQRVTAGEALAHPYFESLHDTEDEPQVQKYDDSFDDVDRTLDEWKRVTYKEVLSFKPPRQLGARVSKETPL
# [13] = molecular target: Protein kinase C iota type (Homo sapiens) (UniProt P41743); conditions: Compound concentration 1000.0 nM
# [14] = molecular target: Ribosomal protein S6 kinase alpha-5 (Homo sapiens, UniProt O75582); conditions: Compound concentration 1000.0 nM
# [15] = molecular target: Serine/threonine-protein kinase 36 (Homo sapiens) (UniProt Q9NRP7); conditions: Compound concentration 1000.0 nM
# [16] = molecular target: T2, Serine/threonine-protein kinase TAO3 (Homo sapiens) (UniProt Q9H2K8); conditions: Compound concentration 1000.0 nM
# T2 sequence (whole entry): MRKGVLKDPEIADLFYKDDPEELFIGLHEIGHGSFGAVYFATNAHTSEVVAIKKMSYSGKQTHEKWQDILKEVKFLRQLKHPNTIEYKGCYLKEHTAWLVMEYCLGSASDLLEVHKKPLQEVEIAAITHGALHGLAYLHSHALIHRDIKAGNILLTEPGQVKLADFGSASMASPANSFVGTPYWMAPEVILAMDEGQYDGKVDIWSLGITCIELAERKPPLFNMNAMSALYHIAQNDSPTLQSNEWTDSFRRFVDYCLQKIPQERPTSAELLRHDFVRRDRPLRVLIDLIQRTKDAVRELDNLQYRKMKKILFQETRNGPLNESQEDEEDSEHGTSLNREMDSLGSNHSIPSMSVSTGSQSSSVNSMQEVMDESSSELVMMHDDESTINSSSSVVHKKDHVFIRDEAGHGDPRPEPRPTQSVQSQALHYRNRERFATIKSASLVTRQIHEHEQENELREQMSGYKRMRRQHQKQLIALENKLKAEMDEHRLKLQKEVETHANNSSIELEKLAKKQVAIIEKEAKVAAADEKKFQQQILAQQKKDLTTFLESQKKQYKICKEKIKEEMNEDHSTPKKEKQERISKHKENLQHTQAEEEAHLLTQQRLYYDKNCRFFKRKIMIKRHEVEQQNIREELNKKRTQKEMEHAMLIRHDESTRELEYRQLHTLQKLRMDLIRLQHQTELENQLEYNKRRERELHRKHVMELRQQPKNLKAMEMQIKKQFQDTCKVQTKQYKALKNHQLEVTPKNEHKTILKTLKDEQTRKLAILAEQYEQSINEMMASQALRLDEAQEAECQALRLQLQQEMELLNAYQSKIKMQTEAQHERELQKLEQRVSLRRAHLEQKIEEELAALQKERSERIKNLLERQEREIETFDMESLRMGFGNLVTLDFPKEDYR
# [17] = molecular target: Serine/threonine-protein kinase VRK2 (Homo sapiens) (UniProt Q86Y07); conditions: Compound concentration 1000.0 nM
# [18] = molecular target: Sodium-dependent serotonin transporter (Homo sapiens) (UniProt P31645); conditions: Compound concentration 10.0 uM
# [19] = molecular target: Alpha-1B adrenergic receptor (Homo sapiens) (UniProt P35368); conditions: Compound concentration 10.0 uM
# Casein kinase I isoform delta (Homo sapiens), sequence (P48730 whole entry, looked up, canonical isoform): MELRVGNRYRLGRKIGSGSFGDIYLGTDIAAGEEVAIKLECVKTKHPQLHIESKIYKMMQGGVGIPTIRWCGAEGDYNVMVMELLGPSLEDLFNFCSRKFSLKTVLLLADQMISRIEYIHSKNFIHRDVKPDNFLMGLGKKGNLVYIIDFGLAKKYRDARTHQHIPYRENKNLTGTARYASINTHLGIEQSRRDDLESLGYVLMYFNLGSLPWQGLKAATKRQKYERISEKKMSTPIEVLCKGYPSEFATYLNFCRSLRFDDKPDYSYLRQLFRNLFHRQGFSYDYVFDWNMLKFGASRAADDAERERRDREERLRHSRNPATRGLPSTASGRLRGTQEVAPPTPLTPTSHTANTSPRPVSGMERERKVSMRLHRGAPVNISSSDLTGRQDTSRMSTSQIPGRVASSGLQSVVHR
# Atypical kinase COQ8A, mitochondrial (Homo sapiens), sequence (Q8NI60 163-647 limits assumed): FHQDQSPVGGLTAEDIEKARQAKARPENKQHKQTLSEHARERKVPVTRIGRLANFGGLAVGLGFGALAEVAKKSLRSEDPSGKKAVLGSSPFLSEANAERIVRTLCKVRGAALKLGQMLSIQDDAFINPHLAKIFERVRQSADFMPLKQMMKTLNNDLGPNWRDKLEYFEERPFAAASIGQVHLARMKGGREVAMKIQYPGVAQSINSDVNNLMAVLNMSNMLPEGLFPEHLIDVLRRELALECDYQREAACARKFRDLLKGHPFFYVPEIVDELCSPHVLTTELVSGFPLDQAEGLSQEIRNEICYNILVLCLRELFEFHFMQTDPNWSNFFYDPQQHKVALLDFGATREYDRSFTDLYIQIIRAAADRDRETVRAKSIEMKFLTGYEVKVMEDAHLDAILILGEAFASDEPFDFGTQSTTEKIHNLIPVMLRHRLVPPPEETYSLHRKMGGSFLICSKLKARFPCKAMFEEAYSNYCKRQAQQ
# Protein kinase C iota type (Homo sapiens), sequence (P41743 whole entry): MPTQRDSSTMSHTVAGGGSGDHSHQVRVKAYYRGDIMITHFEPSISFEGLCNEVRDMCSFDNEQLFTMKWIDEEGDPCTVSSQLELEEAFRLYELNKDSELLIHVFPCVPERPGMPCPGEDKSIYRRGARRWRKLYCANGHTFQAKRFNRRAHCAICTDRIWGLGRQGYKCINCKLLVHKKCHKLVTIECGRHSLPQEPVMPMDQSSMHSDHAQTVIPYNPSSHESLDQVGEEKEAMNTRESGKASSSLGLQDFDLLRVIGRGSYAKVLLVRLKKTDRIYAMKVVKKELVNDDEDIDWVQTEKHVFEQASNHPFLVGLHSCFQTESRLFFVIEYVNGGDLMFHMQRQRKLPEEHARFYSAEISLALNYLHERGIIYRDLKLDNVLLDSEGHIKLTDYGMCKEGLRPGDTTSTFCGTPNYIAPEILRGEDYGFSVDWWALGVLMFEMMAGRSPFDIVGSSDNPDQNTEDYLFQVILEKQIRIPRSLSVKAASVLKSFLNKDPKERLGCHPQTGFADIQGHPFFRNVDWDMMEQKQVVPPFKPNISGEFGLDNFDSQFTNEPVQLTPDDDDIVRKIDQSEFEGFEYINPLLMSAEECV
# Sodium-dependent serotonin transporter (Homo sapiens), sequence (P31645 whole entry, looked up): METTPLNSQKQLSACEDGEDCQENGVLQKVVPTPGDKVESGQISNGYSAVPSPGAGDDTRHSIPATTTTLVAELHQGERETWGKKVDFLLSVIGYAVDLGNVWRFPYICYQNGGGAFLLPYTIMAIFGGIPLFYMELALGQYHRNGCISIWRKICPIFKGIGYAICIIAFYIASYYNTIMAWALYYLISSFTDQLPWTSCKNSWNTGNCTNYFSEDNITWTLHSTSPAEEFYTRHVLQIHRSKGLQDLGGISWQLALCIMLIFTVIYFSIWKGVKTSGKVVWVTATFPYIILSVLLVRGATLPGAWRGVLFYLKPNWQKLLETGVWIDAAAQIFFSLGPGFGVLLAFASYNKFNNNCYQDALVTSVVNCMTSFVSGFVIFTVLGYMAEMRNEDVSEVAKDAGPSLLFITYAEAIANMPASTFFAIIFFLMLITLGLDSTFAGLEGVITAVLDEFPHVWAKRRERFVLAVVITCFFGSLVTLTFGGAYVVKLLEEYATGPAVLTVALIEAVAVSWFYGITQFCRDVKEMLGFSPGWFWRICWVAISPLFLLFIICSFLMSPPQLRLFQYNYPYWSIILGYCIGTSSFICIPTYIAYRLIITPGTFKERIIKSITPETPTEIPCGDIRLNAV
# Tyrosine-protein kinase receptor UFO (Homo sapiens), sequence (P30530 whole entry): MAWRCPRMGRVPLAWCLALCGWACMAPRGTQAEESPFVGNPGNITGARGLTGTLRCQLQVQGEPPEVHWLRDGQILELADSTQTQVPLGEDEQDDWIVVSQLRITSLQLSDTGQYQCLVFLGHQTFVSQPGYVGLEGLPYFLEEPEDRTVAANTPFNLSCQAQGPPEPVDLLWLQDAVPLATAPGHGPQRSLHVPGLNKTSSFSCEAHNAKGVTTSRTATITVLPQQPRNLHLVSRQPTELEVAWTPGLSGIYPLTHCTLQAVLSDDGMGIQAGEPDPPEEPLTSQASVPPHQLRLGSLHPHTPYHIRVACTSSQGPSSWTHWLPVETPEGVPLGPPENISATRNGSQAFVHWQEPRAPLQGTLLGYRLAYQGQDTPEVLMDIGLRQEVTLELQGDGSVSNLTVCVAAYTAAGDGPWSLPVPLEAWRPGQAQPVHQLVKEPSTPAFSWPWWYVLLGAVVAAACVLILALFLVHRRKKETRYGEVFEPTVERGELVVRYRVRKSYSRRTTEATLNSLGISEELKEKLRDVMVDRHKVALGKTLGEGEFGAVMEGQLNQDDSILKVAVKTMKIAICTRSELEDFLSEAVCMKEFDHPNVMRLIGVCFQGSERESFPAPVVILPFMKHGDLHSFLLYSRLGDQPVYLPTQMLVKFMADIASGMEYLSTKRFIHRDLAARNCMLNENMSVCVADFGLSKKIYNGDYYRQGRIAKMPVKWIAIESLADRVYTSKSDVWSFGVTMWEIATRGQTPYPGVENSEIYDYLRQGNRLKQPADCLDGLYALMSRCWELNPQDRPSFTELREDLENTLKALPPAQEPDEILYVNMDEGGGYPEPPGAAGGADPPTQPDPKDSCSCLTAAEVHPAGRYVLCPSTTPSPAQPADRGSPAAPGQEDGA
# Mitogen-activated protein kinase kinase kinase kinase 1 (Homo sapiens), sequence (Q92918 whole entry, looked up): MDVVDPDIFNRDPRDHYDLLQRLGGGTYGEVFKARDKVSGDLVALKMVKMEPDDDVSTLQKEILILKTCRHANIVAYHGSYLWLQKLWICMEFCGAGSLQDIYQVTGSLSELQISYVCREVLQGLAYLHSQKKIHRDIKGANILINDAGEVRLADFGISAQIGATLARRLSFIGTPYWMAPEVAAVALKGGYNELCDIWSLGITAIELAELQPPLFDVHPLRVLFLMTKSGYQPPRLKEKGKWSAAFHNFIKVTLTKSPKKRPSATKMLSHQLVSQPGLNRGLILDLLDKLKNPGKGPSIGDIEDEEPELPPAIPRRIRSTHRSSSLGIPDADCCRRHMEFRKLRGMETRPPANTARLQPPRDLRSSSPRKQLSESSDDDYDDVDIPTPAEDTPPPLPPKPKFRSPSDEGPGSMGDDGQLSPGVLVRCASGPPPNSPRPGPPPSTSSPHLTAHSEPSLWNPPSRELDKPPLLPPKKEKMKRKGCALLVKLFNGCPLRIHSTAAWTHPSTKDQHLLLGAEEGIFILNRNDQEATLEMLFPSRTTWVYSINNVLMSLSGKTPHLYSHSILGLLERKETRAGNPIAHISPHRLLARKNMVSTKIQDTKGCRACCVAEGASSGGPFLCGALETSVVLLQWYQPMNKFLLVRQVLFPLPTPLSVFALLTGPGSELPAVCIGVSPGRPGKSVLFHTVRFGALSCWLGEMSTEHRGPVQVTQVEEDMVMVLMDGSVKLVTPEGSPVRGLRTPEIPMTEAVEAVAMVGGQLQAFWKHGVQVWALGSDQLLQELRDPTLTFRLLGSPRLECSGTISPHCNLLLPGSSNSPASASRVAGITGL
# Ribosomal protein S6 kinase alpha-5, sequence (O75582 whole entry, looked up): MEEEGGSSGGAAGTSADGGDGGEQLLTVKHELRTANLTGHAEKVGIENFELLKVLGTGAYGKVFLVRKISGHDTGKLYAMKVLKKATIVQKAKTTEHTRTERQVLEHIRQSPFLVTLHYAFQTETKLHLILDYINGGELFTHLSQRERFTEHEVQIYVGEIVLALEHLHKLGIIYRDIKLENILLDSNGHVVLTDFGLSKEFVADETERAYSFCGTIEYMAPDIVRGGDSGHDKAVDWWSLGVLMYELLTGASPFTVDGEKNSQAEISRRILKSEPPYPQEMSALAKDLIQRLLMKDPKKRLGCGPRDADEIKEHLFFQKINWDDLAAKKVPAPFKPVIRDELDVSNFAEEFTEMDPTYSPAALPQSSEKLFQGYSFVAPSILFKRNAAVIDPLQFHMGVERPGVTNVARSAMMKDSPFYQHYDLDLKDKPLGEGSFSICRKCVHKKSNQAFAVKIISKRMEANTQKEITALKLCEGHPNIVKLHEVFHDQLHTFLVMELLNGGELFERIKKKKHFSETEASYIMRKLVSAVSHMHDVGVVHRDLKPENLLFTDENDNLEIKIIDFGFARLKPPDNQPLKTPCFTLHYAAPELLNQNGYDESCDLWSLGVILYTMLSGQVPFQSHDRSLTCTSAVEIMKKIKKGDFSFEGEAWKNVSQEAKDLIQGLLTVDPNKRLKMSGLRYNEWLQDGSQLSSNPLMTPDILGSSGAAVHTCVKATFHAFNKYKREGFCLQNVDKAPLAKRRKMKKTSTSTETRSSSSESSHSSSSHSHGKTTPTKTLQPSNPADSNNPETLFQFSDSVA
# Cyclin-dependent kinase 3 (Homo sapiens), sequence (Q00526 whole entry, looked up): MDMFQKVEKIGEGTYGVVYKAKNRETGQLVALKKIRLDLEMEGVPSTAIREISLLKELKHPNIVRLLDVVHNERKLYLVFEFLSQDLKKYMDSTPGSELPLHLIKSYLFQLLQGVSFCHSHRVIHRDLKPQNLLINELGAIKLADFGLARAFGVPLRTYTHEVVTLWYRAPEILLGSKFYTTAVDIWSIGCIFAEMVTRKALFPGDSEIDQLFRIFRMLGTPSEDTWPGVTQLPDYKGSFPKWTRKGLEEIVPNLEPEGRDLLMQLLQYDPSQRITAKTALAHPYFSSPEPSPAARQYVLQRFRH
Compound,residual activity [1] [%],residual activity [2] [%],residual activity [3] [%],residual activity [4] [%],residual activity [5] [%],residual activity [6] [%],residual activity [7] [%],residual activity [8] [%],residual activity [9] [%],residual activity [10] [%],residual activity [11] [%],residual activity [12] [%],residual activity [13] [%],residual activity [14] [%],residual activity [15] [%],residual activity [16] [%],residual activity [17] [%],inhibition [18] [%],inhibition [19] [%]
CCc1ccccc1C(=O)Nc1n[nH]c2c(C)c(F)c(C3C(C#N)=C(C)N(C)C(C)=C3C#N)cc12 [BAY-3827],84,100,88,90,100,61,82,73,100,100,83,76,82,90,100,38,100,-6.24,-9.38
CC1=C(C#N)C(c2ccc3c(c2)c(NC(=O)c2ccccc2C)nn3C)C(C#N)=C(C)N1 [BAY-974],100,100,99,55,89,87,100,81,100,75,96,68,66,87,87,80,72,-6.29,-4.61
